Reference: patent publication US20210154190A1, “SHP2 INHIBITOR COMPOSITIONS AND METHODS FOR TREATING CANCER” (Revolution Medicines, Inc., priority 2018, published 2021)

Molecular target: T1, SHP2 G60V (Homo sapiens, UniProt Q06124, G60V)
T1 construct: expressed in transfected cells; host or cells: Flp-In T-REx-293 (T-REx-293-SHP2)
Assay: EGF-induced pERK AlphaLISA in T-REx-293-SHP2 cells, G60V
Type: cell-based
Settings: Variant G60V
Description: An experimental system was creating to test the activity of SHP2 mutants on an isogenic background (FIG. 6). The Flp-In T-REx-293 cell line was obtained from Gibco® and cultivated in high glucose DMEM™ containing 2 mM L-glutamine (Hyclone®), supplemented with 10% FBS (Hyclone®), 1% penicillin/streptomycin (Gibco®), 100 μg/mL Zeocin™ (Gibco®), and 15 μg/mL blasticidin (Gibco®) in a humidified cell culture incubator at 37° C., 5% CO2.
Wild type or mutant SHP2 variants were synthesized and subcloned into the pcDNA5/FRT/TO vector (ThermoFisher). Plasmids were co-transfected with the pOG44 Flp recombinase expression plasmid (ThermoFisher®) into Flp-In T-REx-293 cells using X-tremegene 9 DNA transfection reagent (Sigma®), according to the manufacturer's instructions. […]
For the final 5 minutes of drug treatment, cells were stimulated with 50 ng/mL Epidermal Growth Factor (Sigma®). […] Samples were read using an EnVision Multilabel Plate Reader (Perkin Elmer®) using standard AlphaLISA settings. Assay data was plotted and EC50 values were determined using four-parameter concentration-response model in GraphPad Prism 7. […]

Cc1nc(N2CCC3(CC2)CO[C@@H](C)[C@H]3N)c(CO)nc1-c1cccc(Cl)c1Cl [Compound B]
Cellular sensitivity: no (Sensitive if IC50 < 2000 nM)
